Assay results taken from publication PMC6437697 (Journal of Medicinal Chemistry, 2019).

Assays:
Assay in all cases: KINOMEscan
Format in all cases: binding
Details in all cases: read-out: % control activity remaining
SLK = biological target: T1, SLK (Homo sapiens, UniProt Q9H2G2)
T1 construct: purchased Eurofins DiscoverX KINOMEscan

INSR = biological target: T2, INSR (Homo sapiens, UniProt P06213)
T2 construct: purchased Eurofins DiscoverX KINOMEscan

EPHA1 = biological target: T3, EPHA1 (Homo sapiens, UniProt P21709)
T3 construct: purchased Eurofins DiscoverX KINOMEscan
T3 sequence (P21709 26-976): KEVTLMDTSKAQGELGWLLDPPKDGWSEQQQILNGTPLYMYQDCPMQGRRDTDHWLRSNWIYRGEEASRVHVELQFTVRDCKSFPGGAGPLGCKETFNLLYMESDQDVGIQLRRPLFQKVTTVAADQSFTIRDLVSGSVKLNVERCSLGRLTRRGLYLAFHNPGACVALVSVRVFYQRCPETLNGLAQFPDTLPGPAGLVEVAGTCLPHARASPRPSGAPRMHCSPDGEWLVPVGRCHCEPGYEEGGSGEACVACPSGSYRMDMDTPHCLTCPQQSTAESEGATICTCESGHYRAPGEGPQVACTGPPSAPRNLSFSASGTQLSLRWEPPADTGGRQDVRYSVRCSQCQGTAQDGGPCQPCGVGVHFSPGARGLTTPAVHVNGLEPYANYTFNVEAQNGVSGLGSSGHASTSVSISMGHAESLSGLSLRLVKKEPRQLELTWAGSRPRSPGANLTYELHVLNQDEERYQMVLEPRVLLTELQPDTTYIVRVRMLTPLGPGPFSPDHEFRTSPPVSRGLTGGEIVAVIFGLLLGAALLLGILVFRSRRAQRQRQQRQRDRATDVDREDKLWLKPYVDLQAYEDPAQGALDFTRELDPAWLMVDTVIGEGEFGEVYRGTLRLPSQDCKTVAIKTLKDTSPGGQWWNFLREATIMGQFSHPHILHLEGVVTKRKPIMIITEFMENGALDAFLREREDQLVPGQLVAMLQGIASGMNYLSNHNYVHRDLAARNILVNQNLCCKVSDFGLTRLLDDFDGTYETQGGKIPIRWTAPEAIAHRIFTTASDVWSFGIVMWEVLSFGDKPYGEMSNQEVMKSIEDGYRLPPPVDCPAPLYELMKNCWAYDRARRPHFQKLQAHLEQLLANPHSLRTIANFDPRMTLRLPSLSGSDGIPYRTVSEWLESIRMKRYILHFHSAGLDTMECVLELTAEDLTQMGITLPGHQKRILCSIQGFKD

IGF1R = biological target: T4, IGF1R (Homo sapiens, UniProt P08069)
T4 construct: purchased Eurofins DiscoverX KINOMEscan

MYLK4 = biological target: T5, MYLK4 (Homo sapiens, UniProt Q86YV6)
T5 construct: purchased Eurofins DiscoverX KINOMEscan
T5 sequence (Q86YV6 1-388): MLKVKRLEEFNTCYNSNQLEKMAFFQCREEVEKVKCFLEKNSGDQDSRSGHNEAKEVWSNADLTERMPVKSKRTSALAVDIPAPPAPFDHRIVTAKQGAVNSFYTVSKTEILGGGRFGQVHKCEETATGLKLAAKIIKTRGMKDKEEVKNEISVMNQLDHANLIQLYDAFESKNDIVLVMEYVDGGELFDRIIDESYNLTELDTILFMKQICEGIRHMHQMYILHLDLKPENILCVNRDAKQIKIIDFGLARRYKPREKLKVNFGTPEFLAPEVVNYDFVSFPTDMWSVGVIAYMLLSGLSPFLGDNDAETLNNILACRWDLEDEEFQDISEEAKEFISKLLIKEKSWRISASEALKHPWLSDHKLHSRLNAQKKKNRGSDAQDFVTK

CSNK1D = biological target: T6, CSNK1D (Homo sapiens, UniProt P48730)
T6 construct: purchased Eurofins DiscoverX KINOMEscan
T6 sequence (P48730 whole entry): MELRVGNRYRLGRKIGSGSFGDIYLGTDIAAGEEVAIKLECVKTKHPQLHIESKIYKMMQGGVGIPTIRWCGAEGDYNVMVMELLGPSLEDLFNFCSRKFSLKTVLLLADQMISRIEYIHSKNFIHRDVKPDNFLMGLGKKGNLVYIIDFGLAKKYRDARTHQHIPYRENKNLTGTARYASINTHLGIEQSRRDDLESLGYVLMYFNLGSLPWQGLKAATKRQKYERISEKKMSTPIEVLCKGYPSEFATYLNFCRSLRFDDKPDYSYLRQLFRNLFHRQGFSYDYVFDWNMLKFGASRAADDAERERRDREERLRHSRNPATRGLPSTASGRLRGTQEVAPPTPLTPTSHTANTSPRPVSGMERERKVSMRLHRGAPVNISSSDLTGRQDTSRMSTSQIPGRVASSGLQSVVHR

QSK = biological target: T7, QSK (Homo sapiens, UniProt Q9Y2K2)
T7 construct: purchased Eurofins DiscoverX KINOMEscan
T7 sequence (Q9Y2K2 whole entry): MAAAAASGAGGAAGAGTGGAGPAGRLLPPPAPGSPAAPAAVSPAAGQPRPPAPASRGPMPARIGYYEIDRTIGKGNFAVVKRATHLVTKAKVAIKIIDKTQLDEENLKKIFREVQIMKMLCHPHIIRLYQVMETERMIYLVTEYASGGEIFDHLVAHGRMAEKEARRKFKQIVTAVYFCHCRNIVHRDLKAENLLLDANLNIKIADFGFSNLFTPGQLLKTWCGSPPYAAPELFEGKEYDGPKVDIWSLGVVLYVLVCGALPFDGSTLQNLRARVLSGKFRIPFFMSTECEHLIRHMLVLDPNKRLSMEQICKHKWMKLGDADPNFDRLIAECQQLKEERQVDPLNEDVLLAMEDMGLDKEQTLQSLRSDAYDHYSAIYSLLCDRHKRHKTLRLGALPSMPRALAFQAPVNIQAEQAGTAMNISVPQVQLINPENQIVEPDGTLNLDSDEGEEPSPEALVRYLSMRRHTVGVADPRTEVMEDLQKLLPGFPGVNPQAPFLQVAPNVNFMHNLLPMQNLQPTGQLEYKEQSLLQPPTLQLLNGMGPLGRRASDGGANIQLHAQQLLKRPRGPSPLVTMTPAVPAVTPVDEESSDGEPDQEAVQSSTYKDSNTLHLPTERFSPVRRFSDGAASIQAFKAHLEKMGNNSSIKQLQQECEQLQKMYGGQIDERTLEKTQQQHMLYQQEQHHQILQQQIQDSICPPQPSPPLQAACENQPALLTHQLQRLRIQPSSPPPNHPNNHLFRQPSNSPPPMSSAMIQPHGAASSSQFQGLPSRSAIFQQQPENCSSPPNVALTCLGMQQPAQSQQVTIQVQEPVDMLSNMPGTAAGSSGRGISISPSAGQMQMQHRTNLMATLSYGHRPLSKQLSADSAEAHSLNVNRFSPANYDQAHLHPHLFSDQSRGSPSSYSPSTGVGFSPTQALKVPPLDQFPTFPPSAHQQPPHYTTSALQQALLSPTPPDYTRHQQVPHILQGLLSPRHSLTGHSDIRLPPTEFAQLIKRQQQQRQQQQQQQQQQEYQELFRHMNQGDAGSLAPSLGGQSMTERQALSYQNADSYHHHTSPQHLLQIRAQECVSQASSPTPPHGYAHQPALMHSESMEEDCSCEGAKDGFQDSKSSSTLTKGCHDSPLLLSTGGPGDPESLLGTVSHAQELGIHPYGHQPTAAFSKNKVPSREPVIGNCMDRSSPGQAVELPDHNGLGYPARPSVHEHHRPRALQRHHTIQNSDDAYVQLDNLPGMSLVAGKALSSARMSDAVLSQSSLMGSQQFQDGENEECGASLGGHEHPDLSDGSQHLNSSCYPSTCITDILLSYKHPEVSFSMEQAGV

CLK1 = biological target: T8, CLK1 (Homo sapiens, UniProt P49759)
T8 construct: purchased Eurofins DiscoverX KINOMEscan
T8 sequence (P49759 whole entry): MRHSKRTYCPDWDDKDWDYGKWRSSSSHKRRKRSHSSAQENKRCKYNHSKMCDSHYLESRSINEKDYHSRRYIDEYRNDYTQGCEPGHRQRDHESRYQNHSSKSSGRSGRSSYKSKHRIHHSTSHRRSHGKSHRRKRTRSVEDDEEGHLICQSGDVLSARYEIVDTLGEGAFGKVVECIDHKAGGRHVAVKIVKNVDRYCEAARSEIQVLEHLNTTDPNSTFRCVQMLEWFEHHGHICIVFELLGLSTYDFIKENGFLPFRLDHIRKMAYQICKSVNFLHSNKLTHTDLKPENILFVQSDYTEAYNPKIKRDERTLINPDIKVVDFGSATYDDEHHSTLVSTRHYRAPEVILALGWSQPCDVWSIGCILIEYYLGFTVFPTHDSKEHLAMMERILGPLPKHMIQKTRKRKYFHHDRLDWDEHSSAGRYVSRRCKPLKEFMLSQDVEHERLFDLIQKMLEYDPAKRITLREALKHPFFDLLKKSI

WNK1 = biological target: T9, WNK1 (Homo sapiens, UniProt Q9H4A3)
T9 construct: purchased Eurofins DiscoverX KINOMEscan

ROCK2 = biological target: T10, ROCK2 (Homo sapiens, UniProt O75116)
T10 construct: purchased Eurofins DiscoverX KINOMEscan
T10 sequence (O75116 whole entry): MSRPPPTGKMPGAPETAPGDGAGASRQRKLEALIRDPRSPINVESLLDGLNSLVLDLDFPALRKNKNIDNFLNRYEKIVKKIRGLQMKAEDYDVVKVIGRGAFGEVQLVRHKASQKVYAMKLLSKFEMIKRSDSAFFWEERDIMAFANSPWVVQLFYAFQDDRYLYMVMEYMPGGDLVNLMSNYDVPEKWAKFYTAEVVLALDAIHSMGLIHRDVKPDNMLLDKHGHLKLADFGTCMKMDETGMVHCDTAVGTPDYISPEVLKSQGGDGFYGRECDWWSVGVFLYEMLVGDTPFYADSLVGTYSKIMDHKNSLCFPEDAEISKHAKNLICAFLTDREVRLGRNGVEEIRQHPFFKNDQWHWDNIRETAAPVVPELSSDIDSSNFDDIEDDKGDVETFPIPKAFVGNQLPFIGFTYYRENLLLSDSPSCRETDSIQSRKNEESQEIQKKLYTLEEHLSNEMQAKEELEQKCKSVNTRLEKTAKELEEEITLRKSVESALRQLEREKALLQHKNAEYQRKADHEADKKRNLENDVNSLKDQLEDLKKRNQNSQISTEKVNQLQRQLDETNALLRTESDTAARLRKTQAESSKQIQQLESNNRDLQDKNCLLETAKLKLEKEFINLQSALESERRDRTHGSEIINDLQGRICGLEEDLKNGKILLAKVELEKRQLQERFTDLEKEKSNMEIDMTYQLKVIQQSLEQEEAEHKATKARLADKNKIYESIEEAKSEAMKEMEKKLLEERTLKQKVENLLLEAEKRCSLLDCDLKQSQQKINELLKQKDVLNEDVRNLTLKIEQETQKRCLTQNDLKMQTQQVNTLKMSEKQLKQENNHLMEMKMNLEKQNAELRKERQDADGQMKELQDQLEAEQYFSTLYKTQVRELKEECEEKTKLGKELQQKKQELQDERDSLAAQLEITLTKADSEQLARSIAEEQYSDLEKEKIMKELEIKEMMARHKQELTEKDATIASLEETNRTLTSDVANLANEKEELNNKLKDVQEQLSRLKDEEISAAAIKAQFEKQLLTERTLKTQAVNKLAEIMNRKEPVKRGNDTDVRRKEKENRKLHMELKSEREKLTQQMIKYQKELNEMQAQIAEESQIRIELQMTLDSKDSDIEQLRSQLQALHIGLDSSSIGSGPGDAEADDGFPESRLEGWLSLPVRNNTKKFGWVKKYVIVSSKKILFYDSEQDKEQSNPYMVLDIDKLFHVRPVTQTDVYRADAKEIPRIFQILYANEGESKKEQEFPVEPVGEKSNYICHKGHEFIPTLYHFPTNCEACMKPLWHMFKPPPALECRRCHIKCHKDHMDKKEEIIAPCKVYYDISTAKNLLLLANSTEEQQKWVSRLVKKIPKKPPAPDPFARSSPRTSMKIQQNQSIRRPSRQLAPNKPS

PFTK1 = biological target: T11, PFTK1 (Homo sapiens, UniProt O94921)
T11 construct: purchased Eurofins DiscoverX KINOMEscan

MAP3K4 = biological target: T12, MAP3K4 (Homo sapiens, UniProt Q9Y6R4)
T12 construct: purchased Eurofins DiscoverX KINOMEscan

IKK-alpha = biological target: T13, IKK-alpha (Homo sapiens, UniProt O15111)
T13 construct: purchased Eurofins DiscoverX KINOMEscan
T13 sequence (O15111 1-745): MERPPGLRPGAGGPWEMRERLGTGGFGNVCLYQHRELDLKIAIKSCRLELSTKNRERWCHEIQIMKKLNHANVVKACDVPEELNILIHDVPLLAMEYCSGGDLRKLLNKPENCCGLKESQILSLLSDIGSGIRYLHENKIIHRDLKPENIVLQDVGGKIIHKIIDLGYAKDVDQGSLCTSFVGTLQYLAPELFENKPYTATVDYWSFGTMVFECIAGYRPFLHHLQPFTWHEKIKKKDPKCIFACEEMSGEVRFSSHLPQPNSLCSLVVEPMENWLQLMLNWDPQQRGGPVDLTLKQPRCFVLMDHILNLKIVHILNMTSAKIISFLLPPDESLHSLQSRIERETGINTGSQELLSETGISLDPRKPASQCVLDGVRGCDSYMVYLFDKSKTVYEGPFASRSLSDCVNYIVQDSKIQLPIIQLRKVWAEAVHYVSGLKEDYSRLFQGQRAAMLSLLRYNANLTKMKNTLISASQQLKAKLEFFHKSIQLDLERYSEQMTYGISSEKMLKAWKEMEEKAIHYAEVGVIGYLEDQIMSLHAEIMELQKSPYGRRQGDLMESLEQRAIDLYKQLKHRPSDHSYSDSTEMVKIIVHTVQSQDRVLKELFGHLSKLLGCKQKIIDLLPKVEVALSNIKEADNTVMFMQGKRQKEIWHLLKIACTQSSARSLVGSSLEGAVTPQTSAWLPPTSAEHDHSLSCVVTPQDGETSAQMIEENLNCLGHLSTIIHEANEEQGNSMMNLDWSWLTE

FGFR2 = biological target: T14, FGFR2 (Homo sapiens, UniProt P21802)
T14 construct: purchased Eurofins DiscoverX KINOMEscan

T2 sequence (P06213 28-1382): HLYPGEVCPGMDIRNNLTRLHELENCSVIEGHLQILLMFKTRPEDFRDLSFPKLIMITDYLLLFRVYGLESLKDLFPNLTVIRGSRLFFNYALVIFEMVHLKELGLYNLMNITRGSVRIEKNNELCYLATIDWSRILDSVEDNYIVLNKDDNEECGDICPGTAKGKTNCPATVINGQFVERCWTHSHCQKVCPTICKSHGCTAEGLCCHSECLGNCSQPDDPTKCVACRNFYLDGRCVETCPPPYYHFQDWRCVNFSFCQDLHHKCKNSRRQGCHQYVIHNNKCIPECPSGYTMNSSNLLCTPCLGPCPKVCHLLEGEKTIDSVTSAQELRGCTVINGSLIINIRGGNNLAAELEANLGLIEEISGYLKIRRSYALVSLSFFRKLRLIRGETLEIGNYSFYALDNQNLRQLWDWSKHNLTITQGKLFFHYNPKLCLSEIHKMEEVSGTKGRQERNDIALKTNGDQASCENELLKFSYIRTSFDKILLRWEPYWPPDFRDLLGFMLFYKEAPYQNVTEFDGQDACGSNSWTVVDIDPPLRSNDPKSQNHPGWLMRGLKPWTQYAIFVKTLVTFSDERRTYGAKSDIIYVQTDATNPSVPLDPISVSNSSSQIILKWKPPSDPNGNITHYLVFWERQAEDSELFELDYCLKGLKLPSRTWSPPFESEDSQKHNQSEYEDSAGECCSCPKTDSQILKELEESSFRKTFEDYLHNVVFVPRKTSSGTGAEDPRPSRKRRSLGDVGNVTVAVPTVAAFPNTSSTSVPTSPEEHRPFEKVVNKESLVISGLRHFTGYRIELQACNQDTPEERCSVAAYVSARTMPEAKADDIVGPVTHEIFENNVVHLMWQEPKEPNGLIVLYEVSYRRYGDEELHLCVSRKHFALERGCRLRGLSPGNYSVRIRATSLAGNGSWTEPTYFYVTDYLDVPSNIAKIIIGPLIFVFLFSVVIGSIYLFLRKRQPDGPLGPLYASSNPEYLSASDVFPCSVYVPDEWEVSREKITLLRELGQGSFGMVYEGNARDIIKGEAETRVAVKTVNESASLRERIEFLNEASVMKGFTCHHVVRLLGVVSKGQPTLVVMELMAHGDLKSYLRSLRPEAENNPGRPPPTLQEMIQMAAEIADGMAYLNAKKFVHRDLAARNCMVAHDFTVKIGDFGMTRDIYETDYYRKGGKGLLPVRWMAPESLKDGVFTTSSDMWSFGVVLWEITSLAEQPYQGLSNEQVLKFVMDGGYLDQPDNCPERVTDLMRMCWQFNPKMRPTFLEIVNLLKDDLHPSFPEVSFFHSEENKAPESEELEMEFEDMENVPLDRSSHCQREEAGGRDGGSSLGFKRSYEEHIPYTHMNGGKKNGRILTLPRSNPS

SMILES: Clc1cc(NCC2CC2)c2ncc(-c3ccc4[nH]ncc4c3)n2n1 [compound 2, 6-Chloro-N-(cyclopropylmethyl)-3-(1H-indazol-5-yl)imidazo[1,2-b]pyridazin-8-amine]
- remaining binding at 1 µM (SLK): 100%
- remaining binding at 1 µM (INSR): 99%
- remaining binding at 1 µM (EPHA1): 80%
- remaining binding at 1 µM (IGF1R): 100%
- remaining binding at 1 µM (MYLK4): 67%
- remaining binding at 1 µM (CSNK1D): 64%
- remaining binding at 1 µM (QSK): 78%
- remaining binding at 1 µM (CLK1): 4%
- remaining binding at 1 µM (WNK1): 89%
- remaining binding at 1 µM (ROCK2): 31%
- remaining binding at 1 µM (PFTK1): 87%
- remaining binding at 1 µM (MAP3K4): 74%
- remaining binding at 1 µM (IKK-alpha): 76%
- remaining binding at 1 µM (FGFR2): 85%

SMILES: O=C(CN1CCOCC1)N[C@H]1CC[C@H](Nc2cc(Cl)nn3c(-c4ccc5[nH]ncc5c4)cnc23)CC1 [compound 26]
- remaining binding at 1 µM (SLK): 98%
- remaining binding at 1 µM (INSR): 91%
- remaining binding at 1 µM (EPHA1): 84%
- remaining binding at 1 µM (IGF1R): 100%
- remaining binding at 1 µM (MYLK4): 24%
- remaining binding at 1 µM (CSNK1D): 61%
- remaining binding at 1 µM (QSK): 82%
- remaining binding at 1 µM (CLK1): 1.2%
- remaining binding at 1 µM (WNK1): 100%
- remaining binding at 1 µM (ROCK2): 21%
- remaining binding at 1 µM (PFTK1): 99%
- remaining binding at 1 µM (MAP3K4): 86%
- remaining binding at 1 µM (IKK-alpha): 100%
- remaining binding at 1 µM (FGFR2): 91%

SMILES: CN1CCC(CNc2cc(Cl)nn3c(-c4cc5nc(Nc6ccccc6)[nH]c5cc4F)cnc23)CC1 [compound 31, 6-Chloro-3-(6-fluoro-2-(phenylamino)-1H-benzo[d]imidazol-5-yl)-N-((1-methylpiperidin-4-yl)methyl)imidazo[1,2-b]pyridazin-8-amine]
- remaining binding at 1 µM (SLK): 80%
- remaining binding at 1 µM (INSR): 97%
- remaining binding at 1 µM (EPHA1): 99%
- remaining binding at 1 µM (IGF1R): 95%
- remaining binding at 1 µM (MYLK4): 91%
- remaining binding at 1 µM (CSNK1D): 100%
- remaining binding at 1 µM (QSK): 100%
- remaining binding at 1 µM (CLK1): 16%
- remaining binding at 1 µM (WNK1): 76%
- remaining binding at 1 µM (ROCK2): 100%
- remaining binding at 1 µM (PFTK1): 96%
- remaining binding at 1 µM (MAP3K4): 86%
- remaining binding at 1 µM (IKK-alpha): 90%
- remaining binding at 1 µM (FGFR2): 84%
